According to publication PMC10385743:
Where two headings read alike, the source gives them in different places.

Columns and labels:
[1] = tested on: HCV GT 4a (strain ED43) subgenomic replicon; assay: microbe, parasite or virus in culture; assay type: cell-based, hepatitis C virus; conditions: for EC50: 72 h, luciferase, mean ± SD, read-out: Huh7.5-4a(ED43) (HCV Replicon 4a) EC50
[2] = Cytotoxicity against cultured L6 cells (resazurin); conditions: rat, L6 rat skeletal myoblast cells, L6 Cells CC50, mean of triplicate experiments ± SEM
[3] = tested on: HCV GT 3a (strain S52) subgenomic replicon; assay: microbe, parasite or virus in culture; assay type: cell-based, hepatitis C virus; conditions: Hepatitis C virus, GT3A, 72 h, luciferase, mean ± SD, read-out: Huh7.5-3a(S52) (HCV Replicon 3a) EC50
[4] = tested on: T. cruzi (CL Brener strain) epimastigotes; conditions: selectivity index
[5] = tested on: T. cruzi (CL Brener strain) epimastigotes; assay: microbe, parasite or virus in culture; conditions: Trypanosoma cruzi; for EC50: read-out: T. cruzi EC50; for EC90: read-out: T. cruzi EC90
[6] = tested on: bloodstream form T. b. brucei (strain 221); assay: microbe, parasite or virus in culture; conditions: Trypanosoma brucei, mean of triplicate experiments ± SEM; for EC50: read-out: T. brucei EC50, cultured bloodstream form; for EC90: read-out: T. brucei EC90, cultured bloodstream form
[7] = tested on: YFV (strain 17D) subgenomic replicon; assay: microbe, parasite or virus in culture; assay type: cell-based, yellow fever virus; conditions: Yellow fever virus, 72 h, read-out: Huh7-YF (YFV Replicon 17D) EC50
[8] = tested on: bloodstream form T. b. brucei (strain 221); conditions: for increase in activity against T. brucei relative to parent compound: 38, 40, 41 versus parent 36, 42 versus parent 37; for SI (CC50 for L6 cells / EC50 for T. brucei): selectivity index; for EC50: read-out: T. brucei EC50, cultured bloodstream form, mean of triplicate experiments ± SEM
[9] = Cytotoxicity in Huh5-2 replicon cells (intracellular ATP levels); conditions: human
[10] = tested on: DENV serotype 2 (strain 16681) subgenomic replicon; assay: microbe, parasite or virus in culture; assay type: cell-based, dengue virus; conditions: Dengue virus, DENV2; 72 h; luciferase; mean ± SD; read-out: Huh7-D2 (DENV-2 Replicon) EC50
[11] = tested on: bloodstream form T. b. brucei (strain 221); conditions: cited from earlier work
[12] = tested on: HCV GT1b (Con1) replicon RNA; conditions: Hepatitis C virus, Huh-5-2, read-out: HCV RNA EC50
[13] = tested on: rat skeletal myoblast L6 cells; assay: Cytotoxicity against cultured L6 cells (resazurin); conditions: read-out: L6 Cells CC50; mean of triplicate experiments ± SEM
[14] = tested on: HCV GT 1b (Con1); assay: Combinatory activity of 34 with daclatasvir (DCV) in Huh5-2 replicon cells, F-Luc activity; assay type: cell-based, hepatitis C virus
Method: The Huh5-2 replicon cell line was treated with compound 34 in the presence or absence of daclatasvir (DCV) to test its effectiveness in combination with an authorized NS5A inhibitor (DCV) (Figure 6).
Figure 6 Combinatory activity of 34 with DCV against HCV GT 1b (Con1). Huh5-2 cells were treated or not with the analog in the presence or absence of 20 pM DCV. F-Luc activity was measured and calculated as relative light units (RLU) per μg of total protein. […] CDI: coefficient of drug interaction. […] Error bars represent standard deviation (SD). TEXT PRINTED IN THE PICTURE: DCV + 34: CDI: 1.09 (1μM); CDI: 0.91 (2μM)

[15] = tested on: DENV serotype 2 (strain 16681) subgenomic replicon; design: method as in PMID 31303998; conditions: lead compound; read-out: Huh7-D2 (DENV-2 Replicon) EC50; cited from earlier work
[16] = tested on: rat skeletal myoblast L6 cells; design: method as in PMID 31303998; conditions: lead compound; cited from earlier work
[17] = tested on: Huh5-2 cells; design: method as in PMID 31303998; conditions: lead compound; read-out: Huh5-2 (HCV Replicon 1b) CC50; cited from earlier work
[18] = tested on: HCV GT 3a (strain S52) subgenomic replicon; design: method as in PMID 31303998; conditions: lead compound; read-out: Huh7.5-3a(S52) (HCV Replicon 3a) EC50; cited from earlier work
[19] = tested on: HCV GT 4a (strain ED43) subgenomic replicon; design: method as in PMID 31303998; conditions: lead compound; read-out: Huh7.5-4a(ED43) (HCV Replicon 4a) EC50; cited from earlier work
[20] = tested on: T. cruzi (CL Brener strain) epimastigotes; design: method as in PMID 31303998; conditions: lead compound; cited from earlier work
[21] = tested on: HCV; design: method as in doi:10.1039/C5MD00439J; conditions: read-out: Antiviral activity (Hepatitis C) EC50; cited from earlier work
[22] = earlier lead compounds, read-out: T. brucei EC50

SMILES | EC50 ([1]; Hepatitis C virus, GT4A) | CC50 at 6 days [2] | EC50 [3] | SI (CC50 for L6 cells / EC50 for T. cruzi) [4] | EC50 [5] | EC90 [5] | EC50 [6] | EC90 [6] | EC50 [7] | SI (CC50 for L6 cells / EC50 for T. brucei) [8] | CC50 at 72 h [9] | EC50 [10] | other results
CCN1C(=O)N(CC(=O)NO)C(=O)C12CCC(c1ccccc1)CC2 (stereo not shown) [Compound 40, N-Hydroxy-2-(1-ethyl-2,4-dioxo-8-phenyl-1,3-diazaspiro [4.5]decan-3-yl)acetamide] | 0.31 ± 0.13 µM | 54.3 ± 5.9 µM | 0.52 ± 0.08 µM | 48 | 1.12 ± 0.03 µM | 1.86 ± 0.04 µM | 0.029 ± 0.001 µM | 0.055 ± 0.003 µM | 6.67 ± 0.05 µM | 1870 | 10.6 ± 0.12 µM | 0.68 ± 0.03 µM | increase in activity against T. brucei relative to parent compound [8]: 30 fold
O=C(CN1C(=O)NC2(CCCCc3ccccc32)C1=O)NO (stereo not shown) [IV] | – | – | – | – | – | – | – | – | – | – | – | – | EC50 [11, 22]: 0.4 ± 0.04 µM
CN1C(=O)N(CC(=O)NO)C(=O)C12CCC(c1ccccc1)CC2 (stereo not shown) [Compound 38, N-Hydroxy-2-(1-methyl-2,4-dioxo-8-phenyl-1,3-diazaspiro [4.5]decan-3-yl)acetamide] | 0.22 µM | 21.7 ± 3.9 µM | 0.63 ± 0.01 µM | 4 | 6.25 ± 0.24 µM | 13.3 ± 0.3 µM | 0.1 ± 0.01 µM | 0.14 ± 0.01 µM | > 10 µM | 220 | 43.1 ± 2.11 µM | 10.2 ± 0.18 µM | increase in activity against T. brucei relative to parent compound [8]: 9 fold
O=C(CN1C(=O)CNC2(CCCCCC2)C1=O)NO [II] | – | – | – | – | – | – | – | – | – | – | – | – | EC50 ([11]; read-out: Trypanocidal activity (T. brucei) EC50): 1.87 ± 0.08 µM
O=C(CN1C(=O)NC2(CCC(c3ccccc3)CC2)C1=O)NO (stereo not shown) [Compound 36, N-Hydroxy-2-(2,4-dioxo-8-phenyl-1,3-diazaspiro [4.5]decan-3-yl) acetamide] | 0.39 ± 0.01 µM | 60.8 ± 8.2 µM | 0.75 ± 0.13 µM | – | > 30 µM | – | 0.88 ± 0.1 µM | 1.18 ± 0.04 µM | > 10 µM | 70 | 75.4 ± 8.46 µM | 4.64 ± 0.11 µM | –
O=C(CN1C(=O)N(Cc2ccccc2)C2(CCCCC2c2ccccc2)C1=O)NO (stereo not shown) [Compound 42, N-Hydroxy-2-(1-benzyl-2,4-dioxo-6-phenyl-1,3-diazaspiro [4.5]decan-3-yl)acetamide] | 0.45 ± 0.02 µM | 11.9 ± 0.7 µM | > 10 µM | 6 | 1.95 ± 0.05 µM | 3.12 ± 0.12 µM | 0.19 ± 0.01 µM | 0.237 ± 0.003 µM | 4.68 ± 0.23 µM | 62 | 9.37 ± 0.182 µM | 1.37 ± 0.08 µM | increase in activity against T. brucei relative to parent compound [8]: 23 fold; EC50 [8]: 0.191 ± 0.006 µM
CN1C(=O)N(CC(=O)NO)C(=O)C12CCCCC2c1ccccc1 (stereo not shown) [Compound 39, N-Hydroxy-2-(1-methyl-2,4-dioxo-6-phenyl-1,3-diazaspiro [4.5]decan-3-yl)acetamide] | > 10 µM | 217 ± 6 µM | > 10 µM | – | > 30 µM | – | 1.46 ± 0.06 µM | 1.75 ± 0.02 µM | > 10 µM | 150 | > 10 µM | 4.62 ± 0.39 µM | –
CC1CCC2(NC(=O)N(CC(=O)NO)C2=O)c2ccccc21 [Compound 34, Ν-(hydroxy)-2-((4R,4′S)/(4S,4′R)-4′-methyl-2,5-dioxo-3′,4′-dihydro-2′H-spiro[imidazolidine-4,1′-naphthalene]-1-yl)acetamide] | – | > 200 µM | 0.63 ± 0.08 µM | – | > 30 µM | – | 0.67 ± 0.09 µM | 0.92 ± 0.23 µM | > 10 µM | 335 | > 200 µM | > 10 µM | EC50 [12]: 0.726 µM; fold more active against GT 4a than lead molecule V [1]: 2.5 fold; EC50 [1]: 0.14 ± 0.01 µM; CC50 [13]: 224 ± 20 µM; CDI ([14]; 1 μM 34 with 20 pM DCV): 1.09; CDI ([14]; 2 μM 34 with 20 pM DCV): 0.91; coefficient of drug interaction (CDI) ([14]; 34 in combination with daclatasvir (DCV)): ≈ 1
CC(C(=O)NO)N1C(=O)N(C)C2(CCC(c3ccccc3)CC2)C1=O (stereo not shown) [Compound 53, N-(hydroxy)-2-(1-methyl-2,4-dioxo-8-phenyl-1,3-diazaspiro [4.5]decan-3-yl)propanamide] | 0.28 ± 0.02 µM | 90.5 ± 7.3 µM | > 10 µM | 11 | 8.5 ± 0.23 µM | 11.9 ± 0.5 µM | 0.154 ± 0.009 µM | 0.281 ± 0.006 µM | > 10 µM | 590 | 100 ± 3.57 µM | 2.45 ± 0.22 µM | –
O=C(CN1C(=O)NC2(CCCCC2c2ccccc2)C1=O)NO (stereo not shown) [Compound 37, N-Hydroxy-2-(2,4-dioxo-6-phenyl-1,3-diazaspiro [4.5]decan-3-yl) acetamide] | > 10 µM | > 200 µM | > 10 µM | – | > 30 µM | – | 4.41 ± 0.22 µM | 5.92 ± 0.09 µM | > 10 µM | 55 | > 10 µM | > 10 µM | CC50 [13]: 246 ± 3 µM; T. brucei EC50 fold higher than that of 36 ([8]; 2-phenyl versus 4-phenyl cyclohexane ring): 5 fold
O=C(CN1C(=O)N(Cc2ccccc2)C2(CCC(c3ccccc3)CC2)C1=O)NO (stereo not shown) [Compound 41, N-Hydroxy-2-(1-benzyl-2,4-dioxo-8-phenyl-1,3-diazaspiro [4.5]decan-3-yl)acetamide] | > 10 µM | 3.98 ± 0.32 µM | > 10 µM | 12 | 0.34 ± 0.02 µM | 0.74 ± 0.05 µM | 0.009 ± 0.001 µM | 0.011 ± 0.001 µM | > 10 µM | 440 | > 10 µM | > 10 µM | increase in activity against T. brucei relative to parent compound [8]: 100 fold
O=C(CN1C(=O)NC2(CCc3ccccc32)C1=O)NO (stereo not shown) [III] | – | – | – | – | – | – | – | – | – | – | – | – | EC50 [11, 22]: 0.44 ± 0.08 µM
O=C(CN1C(=O)NC2(CCCc3ccccc32)C1=O)NO (stereo not shown) [V] | – | – | – | – | – | – | – | – | – | – | – | – | EC50 [15]: 61.5 ± 3.86 µM; CC50 [16]: 419 ± 55 µM; CC50 [17]: > 200 µM; EC50 [18]: 2.37 ± 0.17 µM; EC50 [11, 22]: 0.71 ± 0.12 µM; EC90 ([11]; lead compound): 1.27 ± 0.02 µM; SI (CC50 for L6 cells / EC50 for T. brucei) ([11]; lead compound): 590; EC50 [19]: 0.38 ± 0.04 µM; EC50 [20]: > 30 µM; EC90 [20]: > 30 µM
CC(C(=O)NO)N1C(=O)NC2(CCC(c3ccccc3)CC2)C1=O (stereo not shown) [Compound 49, N-(Hydroxy)-2-(2,4-dioxo-8-phenyl-1,3-diazaspiro [4.5]decan-3-yl)propanamide] | > 10 µM | > 200 µM | > 10 µM | – | > 30 µM | – | 0.88 µM | 1.42 ± 0.19 µM | 7.98 ± 0.18 µM | 270 | > 10 µM | > 10 µM | CC50 [13]: 233 ± 33 µM; EC50 [8]: 0.876 ± 0.051 µM
O=C1Cn2c(cc3ccccc32)C(=O)N1O [I] | – | – | – | – | – | – | – | – | – | – | – | – | EC50 [21]: 126 ± 14.2 µM
